Measured values as given in paper PMC9387934, “Randomized single oral dose phase 1 study of safety, tolerability, and pharmacokinetics of Iminosugar UV-4 Hydrochloride (UV-4B) in healthy subjects” (PLoS Neglected Tropical Diseases, 2022).
Where a name gives a salt, the structure may show the parent alone. Read-outs that look alike come from different tables or passages of the source.

Columns and labels:
[1] = Prediction of human clearance and exposure by scaling of IV PK data from mouse, rat and dog against body weight
Description: Pharmacokinetic parameters seen in the Phase 1a study were compared to exposure and clearance data collected in animal studies to determine if consistent parameters are observed across species (detailed ADME and PK assessment in non-human species will be described in a manuscript in preparation). Nonclinical PK and excretion studies of UV-4 as the hydrochloride salt and UV-4 free base were conducted using the oral and IV routes of administration as single doses in mice, rats, ferrets, and dogs. […] Absorption was rapid following oral administration in each nonclinical species, in alignment with the median Tmax of 0.5 to 1 hour across all dose groups in the Phase 1a study.

[2] = system: CYP1A2; parameters: method as in Investigator’s Brochure (IB); conditions: in vitro; ref Investigator’s Brochure (IB); cited from earlier work
[3] = system: CYP2D6; parameters: method as in Investigator’s Brochure (IB); conditions: in vitro; ref Investigator’s Brochure (IB); cited from earlier work
[4] = system: CYP3A4/5; parameters: method as in Investigator’s Brochure (IB); conditions: ref Investigator’s Brochure (IB), cited from earlier work
[5] = system: DENV-2 S221; conditions: ref Investigator’s Brochure (IB), cited from earlier work
[6] = system: DENV; conditions: cited from earlier work
[7] = parameters: method as in Investigator’s Brochure (IB); conditions: beagle dogs, single dose of 400 mg/kg; ref Investigator’s Brochure (IB); cited from earlier work
[8] = ICH accelerated stability storage condition; cited from earlier work
[9] = rat, cited from earlier work
[10] = system: human ether-a-go-go-related gene potassium channel; conditions: at UV-4 concentration more than 20-fold higher than expected at the planned ceiling dose in humans; ref Investigator’s Brochure (IB); cited from earlier work
[11] = cited from earlier work
[12] = in vitro; ref Investigator’s Brochure (IB); cited from earlier work
[13] = oral, first dose 1 hour before infection, TID for 7 days
[14] = 20 mg/kg TID, started 1 hour before infection, ref UV4-LIA-0004
[15] = 20 mg/kg TID, started 24 hours after infection, ref UV4-LIA-0003b
[16] = 20 mg/kg TID, started 24 hours after infection, ref UV4-LIA-0004
[17] = 20 mg/kg TID, started 48 hours after infection, ref UV4-LIA-0003b
[18] = 20 mg/kg TID, started 48 hours after infection, ref UV4-LIA-0004
[19] = mice, Day 14, at NOAEL 300 mg/kg/day, ref Investigator’s Brochure (IB)
[20] = mouse, 25 TID mg/kg, Day 28 (Recovery)
[21] = mouse, 25 TID mg/kg, dosing phase (Day 14)
[22] = mouse, 100 TID mg/kg (NOAEL), Day 28 (Recovery)

COCCCCCCCCCN1C[C@H](O)[C@@H](O)[C@H](O)[C@H]1CO [UV-4, N-(9’-methoxynonyl)-1-deoxynojirimycin]
clearance ([1]; human, simple scaling of systemic clearance against body weight, IV PK data of mouse, rat and dog, read-out: Human systemic clearance, estimated (converted)): 560 mL/min | Total exposure (AUC(0-inf)), predicted ([1]; starting dose of 3 mg, from scaled clearance): 89 ng·h/mL | Direct inhibition of CYP1A2 [2]: No clinically relevant direct inhibition | Direct inhibition of CYP2D6 [3]: No clinically relevant direct inhibition | Direct inhibition of CYP3A4/5 ([4]; midazolam 1’-hydroxylase): No clinically relevant direct inhibition | Direct inhibition of CYP3A4/5 ([4]; testosterone 6β-hydroxylase): weak direct inhibition | Estimated IC50 ([4]; testosterone 6β-hydroxylase): > 191 µg/mL | IC50 ([4]; testosterone 6β-hydroxylase, read-out: Estimated IC50): > 600 µM

COCCCCCCCCCN1C[C@H](O)[C@@H](O)[C@H](O)[C@H]1CO [UV-4B, N-(9’-methoxynonyl)-1-deoxynojirimycin hydrochloride]
50% effective dose [5, 13]: 5 mg/kg TID | Minimal effective dose (90% survival rate) [5, 13]: 10 mg/kg TID | 50% effective dose ([5]; step-wise minimal effective dose and therapeutic window studies, start 24 or 48 hours after infection): 20 mg/kg TID | Survival rate ([6]; 2.5 mg/kg TID, ref UV4-LIA-0002): 40% | Survival rate ([6]; 5 mg/kg TID, ref UV4-LIA-0002): 50% | Mean time to death (MTTD) ([6]; 20 mg/kg TID, started 1 hour before infection, all surviving at end of study, ref UV4-LIA-0003b): more than 11 days | Survival rate ([6]; 20 mg/kg TID, started 1 hour before infection, ref UV4-LIA-0003b): 100% | Mean time to death (MTTD) [6, 14]: 9.1 days | Survival rate at 11 days post-infection [6, 14]: 30% | Mean time to death (MTTD) [6, 15]: 7 days | Survival rate [6, 15]: 80% | Mean time to death (MTTD) [6, 16]: 10.5 days | Survival rate at 11 days post-infection [6, 16]: 60% | Mean time to death (MTTD) [6, 17]: 9.3 days | Survival rate [6, 17]: 70% | Mean time to death (MTTD) [6, 18]: 6 days | Survival rate at 11 days post-infection [6, 18]: 40% | Minimal effective dose (survival of 90% to 100%) ([6]; doses 2.5 to 40 mg/kg TID, first dose 1 hour prior to infection, ref UV4-LIA-0002): 10 mg/kg TID | Neurologic finding [7]: tremors | Stability trend of drug substance batches [8]: increases in water content | Dose with increased WBC and lymphocyte count ([9]; printed men): ≥ 10 mg/kg/dose, TID | Dose with swollen paws/legs and perioral appearance and red skin, paws, and/or feet ([9]; women [sic]): < 60 mg/kg/dose, TID | Cardiovascular Effects [9]: none observed | Dose with decreased PLT and reticulocyte count [9]: ≥ 10 mg/kg/dose, TID | Dose with erosion/ulcer, inflammation, decreased mucus in stomach, hyperplasia/hyperkeratosis [9]: ≥ 25 mg/kg/dose, TID | Dose with extramedullary hematopoiesis decreased in spleen and liver [9]: 60 mg/kg/dose, TID | Dose with increased AST and ALT [9]: ≥ 10 mg/kg/dose, TID | Inhibition of hERG potassium channel [10]: did not inhibit | NOAEL ([11]; mice, 14 days of TID administration, ref Investigator’s Brochure (IB)): 300 mg/kg/day | No observed effect level (NOEL) ([11]; mice, 14 days, a NOEL was not present at this dose level, ref Investigator’s Brochure (IB)): < 25 mg/kg/dose | AUC(0-8) [11, 19]: 54,435 ng•h/mL | Mean Cmax [11, 19]: 32,617 ng/mL | Decreased thymus weight (M) [11, 20]: − | Follicular epithelium vacuolation in thyroid [11, 20]: − | Lymphoid depletion of the thymus (M) [11, 20]: − | Decreased thymus weight (M) [11, 21]: ↓ (M) | Lymphoid depletion of the thymus (M) [11, 21]: P (M) | Decrease in red cell mass (RBC Count, HGB, and HCT) [11, 22]: − | Decrease in thymus weight [11, 22]: − | Follicular epithelium vacuolation in thyroid [11, 22]: − | Lymphoid depletion in thymus [11, 22]: − | Neutrophilic infiltration and erosion/ulcer rectum (F) [11, 22]: − | Mutagenicity, Ames bacterial reverse mutation (two assays) [12]: not found to be mutagenic or clastogenic
